According to ChEMBL document CHEMBL4732263 (Bioorg Med Chem, 2021):
≈ marks a conversion by molar mass, not a printed value.

Tests used:
[1] = Volume of distribution at steady state in Sprague-Dawley rat blood at 2.9 mg/kg, iv up to 24 hrs by LC-MS analysis; format: ADME, organism-based; settings: whole blood, read-out: Vdss
[2] = Volume of distribution at steady state in Sprague-Dawley rat plasma at 2.9 mg/kg, iv up to 24 hrs by LC-MS analysis; format: ADME, organism-based; settings: read-out: Vdss
in vitro [3] = settings: Balb/C, mouse, plasma; at 1 µg/mL
[4] = Drug excretion in Sprague-Dawley rat urine at 2.9 mg/kg, iv up to 24 hrs by LC-MS analysis; format: ADME, organism-based; settings: read-out: Drug excretion
in vitro [5] = settings: Balb/C, mouse, plasma; at 1 µg/mL; remark: listed apart in the source
[6] = AUC(0 to infinity) in Sprague-Dawley rat plasma at 2.9 mg/kg, iv up to 24 hrs by LC-MS analysis; format: ADME, organism-based; design: route intravenous, dose 2.9 mg/kg, time <=24
in vivo = settings: Balb/C, mouse, po
in vitro [7] = settings: human, Caco-2
physchem [8] = settings: PBS, pH 6.5, pH 6.5
in vitro [9] = settings: human, Caco-2; remark: listed apart in the source
[10] = molecular target: Sodium channel protein type 5 subunit alpha (Homo sapiens, UniProt Q14524)
Sequence of Sodium channel protein type 5 subunit alpha (Q14524 whole entry): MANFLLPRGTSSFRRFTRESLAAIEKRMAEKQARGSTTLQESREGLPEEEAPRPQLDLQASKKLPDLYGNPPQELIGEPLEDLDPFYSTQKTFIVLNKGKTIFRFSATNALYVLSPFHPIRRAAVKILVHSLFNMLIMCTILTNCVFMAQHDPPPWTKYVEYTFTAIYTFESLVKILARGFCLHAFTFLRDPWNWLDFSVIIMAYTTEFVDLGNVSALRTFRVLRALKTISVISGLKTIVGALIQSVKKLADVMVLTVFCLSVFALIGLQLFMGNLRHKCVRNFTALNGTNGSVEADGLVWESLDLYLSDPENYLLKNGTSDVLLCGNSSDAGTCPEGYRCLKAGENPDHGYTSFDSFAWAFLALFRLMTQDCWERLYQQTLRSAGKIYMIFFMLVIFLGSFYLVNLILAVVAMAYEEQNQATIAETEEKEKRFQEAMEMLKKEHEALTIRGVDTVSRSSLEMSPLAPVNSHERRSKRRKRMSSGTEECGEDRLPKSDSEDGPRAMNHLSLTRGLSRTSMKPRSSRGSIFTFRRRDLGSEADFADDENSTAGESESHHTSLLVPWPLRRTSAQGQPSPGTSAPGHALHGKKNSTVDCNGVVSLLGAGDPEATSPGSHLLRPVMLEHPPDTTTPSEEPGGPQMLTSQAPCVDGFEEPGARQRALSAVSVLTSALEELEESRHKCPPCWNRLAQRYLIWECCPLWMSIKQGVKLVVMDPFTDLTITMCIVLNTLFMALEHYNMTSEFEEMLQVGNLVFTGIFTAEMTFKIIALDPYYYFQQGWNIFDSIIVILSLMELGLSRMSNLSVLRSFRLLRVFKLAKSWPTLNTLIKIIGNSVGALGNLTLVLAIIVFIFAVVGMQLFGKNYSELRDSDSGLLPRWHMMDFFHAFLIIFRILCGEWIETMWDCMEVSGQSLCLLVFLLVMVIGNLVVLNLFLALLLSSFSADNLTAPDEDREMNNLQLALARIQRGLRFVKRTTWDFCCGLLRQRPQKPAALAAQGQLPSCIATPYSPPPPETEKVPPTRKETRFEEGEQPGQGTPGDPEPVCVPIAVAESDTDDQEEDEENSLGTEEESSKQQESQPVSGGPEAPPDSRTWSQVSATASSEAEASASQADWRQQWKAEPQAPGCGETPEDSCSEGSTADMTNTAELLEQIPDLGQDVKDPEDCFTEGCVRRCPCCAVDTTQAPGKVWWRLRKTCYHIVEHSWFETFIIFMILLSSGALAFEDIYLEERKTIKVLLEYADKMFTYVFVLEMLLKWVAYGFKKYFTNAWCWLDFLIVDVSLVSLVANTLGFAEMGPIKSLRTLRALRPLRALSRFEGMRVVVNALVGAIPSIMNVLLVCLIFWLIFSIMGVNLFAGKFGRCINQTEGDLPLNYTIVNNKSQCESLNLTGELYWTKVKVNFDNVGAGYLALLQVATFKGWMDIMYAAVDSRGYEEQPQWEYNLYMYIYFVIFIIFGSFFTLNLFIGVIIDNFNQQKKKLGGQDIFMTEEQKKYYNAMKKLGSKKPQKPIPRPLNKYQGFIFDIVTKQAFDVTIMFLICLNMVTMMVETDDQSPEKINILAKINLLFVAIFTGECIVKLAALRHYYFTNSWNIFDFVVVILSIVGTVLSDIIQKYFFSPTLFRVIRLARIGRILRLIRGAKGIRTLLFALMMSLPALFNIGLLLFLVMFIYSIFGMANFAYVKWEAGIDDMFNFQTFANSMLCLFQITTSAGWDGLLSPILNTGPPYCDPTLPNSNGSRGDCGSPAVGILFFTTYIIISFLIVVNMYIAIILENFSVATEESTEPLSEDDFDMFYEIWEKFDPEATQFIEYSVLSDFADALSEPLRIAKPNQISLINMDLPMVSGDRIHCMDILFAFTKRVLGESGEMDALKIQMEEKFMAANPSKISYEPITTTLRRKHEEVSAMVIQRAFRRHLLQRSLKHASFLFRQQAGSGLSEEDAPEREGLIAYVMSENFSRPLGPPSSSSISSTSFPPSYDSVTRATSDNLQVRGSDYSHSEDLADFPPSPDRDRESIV

[11] = AUC(0 to infinity) in Balb/C mouse plasma at 1.9 mg/kg, iv up to 24 hrs by LC-MS analysis; format: ADME, organism-based; design: route intravenous, dose 1.9 mg/kg, time <=24
[12] = Volume of distribution at steady state in Balb/C mouse plasma at 1.9 mg/kg, iv up to 24 hrs by LC-MS analysis; format: ADME, organism-based; settings: read-out: Vdss
[13] = Apparent half life in Balb/C mouse at 1.9 mg/kg, iv up to 24 hrs by LC-MS analysis; format: ADME, organism-based; settings: in vivo, read-out: t1/2(app) (converted)
in vitro [14] = settings: mouse, liver microsomes
cells = settings: Homo sapiens, HEK293, 10 min
[15] = mouse, blood, 2 h; at 1 µg/mL
in vitro [16] = settings: human, Caco-2; remark: listed apart in the source
in vitro [17] = settings: human, Caco-2; remark: listed apart in the source
[18] = molecular target: Voltage-gated inwardly rectifying potassium channel KCNH2 (Homo sapiens, UniProt Q12809)
Sequence of Voltage-gated inwardly rectifying potassium channel KCNH2 (Q12809 whole entry): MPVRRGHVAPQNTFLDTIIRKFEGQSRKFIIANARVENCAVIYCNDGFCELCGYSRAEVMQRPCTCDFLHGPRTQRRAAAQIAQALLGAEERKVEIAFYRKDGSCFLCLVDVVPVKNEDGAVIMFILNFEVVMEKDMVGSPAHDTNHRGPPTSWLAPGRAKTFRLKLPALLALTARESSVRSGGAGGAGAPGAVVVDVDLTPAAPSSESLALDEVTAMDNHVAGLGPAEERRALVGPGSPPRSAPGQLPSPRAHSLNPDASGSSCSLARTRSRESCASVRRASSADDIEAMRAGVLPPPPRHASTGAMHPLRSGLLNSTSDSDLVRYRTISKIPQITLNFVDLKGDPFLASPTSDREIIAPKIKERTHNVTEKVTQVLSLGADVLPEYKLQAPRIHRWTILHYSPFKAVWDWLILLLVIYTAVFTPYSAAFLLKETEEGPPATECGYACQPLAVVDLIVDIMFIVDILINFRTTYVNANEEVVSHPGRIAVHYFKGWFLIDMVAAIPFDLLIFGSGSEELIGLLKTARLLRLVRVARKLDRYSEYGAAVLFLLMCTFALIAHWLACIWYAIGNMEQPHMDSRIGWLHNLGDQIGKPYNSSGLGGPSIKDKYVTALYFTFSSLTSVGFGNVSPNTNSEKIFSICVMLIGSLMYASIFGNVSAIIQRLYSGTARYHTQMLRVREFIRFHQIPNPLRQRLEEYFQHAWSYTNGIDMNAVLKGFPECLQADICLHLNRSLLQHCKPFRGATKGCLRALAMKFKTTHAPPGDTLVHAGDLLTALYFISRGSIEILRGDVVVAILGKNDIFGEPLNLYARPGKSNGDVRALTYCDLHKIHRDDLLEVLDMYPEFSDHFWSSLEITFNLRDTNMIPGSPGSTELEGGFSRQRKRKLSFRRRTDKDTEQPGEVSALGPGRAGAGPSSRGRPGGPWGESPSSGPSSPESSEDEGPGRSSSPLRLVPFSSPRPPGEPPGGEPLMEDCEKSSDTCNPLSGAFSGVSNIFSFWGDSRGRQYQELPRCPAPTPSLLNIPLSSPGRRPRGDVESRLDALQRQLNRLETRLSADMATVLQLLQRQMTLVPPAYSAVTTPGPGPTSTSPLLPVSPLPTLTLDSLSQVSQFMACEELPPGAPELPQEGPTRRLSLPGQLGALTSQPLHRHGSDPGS

in vitro [19] = settings: mouse, liver microsomes; remark: listed apart in the source
[20] = Volume of distribution at steady state in Balb/C mouse blood at 1.9 mg/kg, iv up to 24 hrs by LC-MS analysis; format: ADME, organism-based; settings: whole blood, read-out: Vdss
[21] = Plasma clearance in Sprague-Dawley rat at 2.9 mg/kg, iv up to 24 hrs by LC-MS analysis; format: ADME, organism-based
in vitro [22] = settings: human, liver microsomes
[23] = Plasma clearance in Balb/C mouse at 1.9 mg/kg, iv up to 24 hrs by LC-MS analysis; format: ADME, organism-based
[24] = Half life in Sprague-Dawley rat at 2.9 mg/kg, iv up to 24 hrs by LC-MS analysis; format: ADME, organism-based; settings: in vivo
[25] = Clearance in Sprague-Dawley rat blood at 2.9 mg/kg, iv up to 24 hrs by LC-MS analysis; format: ADME, organism-based; settings: whole blood
in vitro [26] = settings: human, liver microsomes; remark: listed apart in the source
physchem [27] = settings: HCl, pH 2, pH 2
[28] = Clearance in Balb/C mouse blood at 1.9 mg/kg, iv up to 24 hrs by LC-MS analysis; format: ADME, organism-based; settings: whole blood
[29] = mouse, microsomes, 1 h, 1 µM
[30] = human, microsomes, 1 h, 1 µM
[31] = Clearance in Sprague-Dawley rat renal blood at 2.9 mg/kg, iv up to 24 hrs by LC-MS analysis; format: ADME, organism-based; settings: whole blood
physchem [32] = settings: octanol/water, pH 7.4
in vitro [33] = settings: human, Caco-2; remark: listed apart in the source
[34] = Drug excretion in Sprague-Dawley rat urine at 2.6 mg/kg, iv up to 24 hrs by LC-MS analysis; format: ADME, organism-based; settings: read-out: Drug excretion
[35] = Clearance in Balb/C mouse blood at 3.5 mg/kg, iv up to 24 hrs by LC-MS analysis; format: ADME, organism-based; settings: whole blood
[36] = Plasma clearance in Sprague-Dawley rat at 2.6 mg/kg, iv up to 24 hrs by LC-MS analysis; format: ADME, organism-based
[37] = Clearance in Sprague-Dawley rat blood at 2.6 mg/kg, iv up to 24 hrs by LC-MS analysis; format: ADME, organism-based; settings: whole blood
[38] = Clearance in Sprague-Dawley rat renal blood at 2.6 mg/kg, iv up to 24 hrs by LC-MS analysis; format: ADME, organism-based; settings: whole blood
[39] = Volume of distribution at steady state in Sprague-Dawley rat blood at 2.6 mg/kg, iv up to 24 hrs by LC-MS analysis; format: ADME, organism-based; settings: whole blood, read-out: Vdss
[40] = Volume of distribution at steady state in Balb/C mouse plasma at 3.5 mg/kg, iv up to 24 hrs by LC-MS analysis; format: ADME, organism-based; settings: read-out: Vdss
[41] = Volume of distribution at steady state in Sprague-Dawley rat plasma at 2.6 mg/kg, iv up to 24 hrs by LC-MS analysis; format: ADME, organism-based; settings: read-out: Vdss
[42] = Apparent half life in Balb/C mouse at 3.5 mg/kg, iv up to 24 hrs by LC-MS analysis; format: ADME, organism-based; settings: in vivo, read-out: t1/2(app) (converted)
[43] = AUC(0 to infinity) in Sprague-Dawley rat plasma at 2.6 mg/kg, iv up to 24 hrs by LC-MS analysis; format: ADME, organism-based; design: route intravenous, dose 2.6 mg/kg, time <=24
[44] = Half life in Sprague-Dawley rat at 2.6 mg/kg, iv up to 24 hrs by LC-MS analysis; format: ADME, organism-based; settings: in vivo
[45] = Volume of distribution at steady state in Balb/C mouse blood at 3.5 mg/kg, iv up to 24 hrs by LC-MS analysis; format: ADME, organism-based; settings: whole blood, read-out: Vdss
[46] = Plasma clearance in Balb/C mouse at 3.5 mg/kg, iv up to 24 hrs by LC-MS analysis; format: ADME, organism-based
[47] = AUC(0 to infinity) in Balb/C mouse plasma at 3.5 mg/kg, iv up to 24 hrs by LC-MS analysis; format: ADME, organism-based; design: route intravenous, dose 3.5 mg/kg, time <=24

SMILES	fraction unbound at […], 1 ug/ml (in vitro [3])	metabolised at 4 h, 1 ug/ml (in vitro [5]) [%]	solubility kinetic (physchem [8]) [µg/mL]	Papp B→A at 2 h, 20 µM (in vitro [9]) [×10⁻⁶ cm/s]	IC50 [10] [µM]	half-life at 1 h, 1 µM (in vitro [14]) [min]	IC50 (cells) [µM]	Stabilty [15]	Papp A→B at 2 h, 20 µM (in vitro [17]) [×10⁻⁶ cm/s]	microsomal CLint at 1 h, 1 µM (in vitro [19]) [µL/min/mg]	half-life at 1 h, 1 µM (in vitro [22]) [min]	microsomal CLint at 1 h, 1 µM (in vitro [26]) [µL/min/mg]	solubility kinetic (physchem [27]) [µg/mL]	CL free [29] [µL/min/mg]	CL free [30] [µL/min/mg]	further results
COc1ncc(-c2nc(C(=O)NC(=N)N)c(N)nc2N)cn1	0.4	< 6	12.5 (≈ 41.2 µM)	0.26	> 30	> 255	> 30	Unstable	0.57	< 7	> 255	< 7	> 100	< 7	< 7	Vd [1]: 5.2 L/kg; Vd [2]: 3.4 L/kg; dose excreted at 24 h [4]: 36.4%; AUC(0-inf) [6]: 3.2 µM·h; bioavailability at 24 h (in vivo; at 1.9 to 3.5 mg/kg): 0.81%; recovery at 2 h, 20 µM (in vitro [7]): 97%; AUC(0-inf) [11]: 2.7 µM·h; Vd [12]: 0.7 L/kg; half-life [13]: 37.2 min; recovery at 2 h, 20 µM (in vitro [16]): 104%; IC50 [18]: > 30 µM; Vd [20]: 0.7 L/kg; clearance [21]: 51.3 mL/min/kg; clearance [23]: 38 mL/min/kg; half-life [24]: 402 min; clearance [25]: 78.9 mL/min/kg; clearance [28]: 41 mL/min/kg; CL renal at 24 h [31]: 29.2 mL/min/kg
N=C(N)NC(=O)c1nc(-c2ccco2)c(N2CCCCCC2)nc1N			6.3 (≈ 18.3 µM)			13				138	50	35	50 (≈ 146 µM)	687	687	
N=C(N)NC(=O)c1nc(-c2cc3ccccc3s2)c(N)nc1N			12.5 (≈ 38.2 µM)			7				252	68	25	50 (≈ 153 µM)	417	41	logD (physchem [32]): 2.9
CC(C)NCC(O)COc1cccc2ccccc12 (centres undefined) [PROPRANOLOL]				51					49							efflux ratio at 2 h, 20 µM (in vitro [33]): 1.1
N=C(N)NC(=O)c1nc(-c2cc3ccccc3o2)c(N)nc1N	0.06	< 6			22	16	22	Unstable		106	33	53		167	84	dose excreted at 24 h [34]: 12.5%; clearance [35]: 60 mL/min/kg; clearance [36]: 87.7 mL/min/kg; bioavailability at 24 h (in vivo): < 5%; clearance [37]: 44.7 mL/min/kg; CL renal at 24 h [38]: 5.6 mL/min/kg; Vd [39]: 8.9 L/kg; Vd [40]: 4.1 L/kg; Vd [41]: 17.5 L/kg; half-life [42]: 43.8 min; AUC(0-inf) [43]: 1.6 µM·h; half-life [44]: 294 min; Vd [45]: 2.2 L/kg; clearance [46]: 114 mL/min/kg; AUC(0-inf) [47]: 1.6 µM·h
